Patent US20240116985A1, “STAPLED PEPTIDES AND METHODS THEREOF” (priority 2020, published 2024)
Read-outs that look alike come from different tables or passages of the source.

Target: T1, full-length beta-Catenin (Uniprot ID P35222) (Homo sapiens, UniProt P35222)
T1 construct: 10 nM full-length beta-Catenin (Uniprot ID P35222)
T1 sequence (P35222 1-781): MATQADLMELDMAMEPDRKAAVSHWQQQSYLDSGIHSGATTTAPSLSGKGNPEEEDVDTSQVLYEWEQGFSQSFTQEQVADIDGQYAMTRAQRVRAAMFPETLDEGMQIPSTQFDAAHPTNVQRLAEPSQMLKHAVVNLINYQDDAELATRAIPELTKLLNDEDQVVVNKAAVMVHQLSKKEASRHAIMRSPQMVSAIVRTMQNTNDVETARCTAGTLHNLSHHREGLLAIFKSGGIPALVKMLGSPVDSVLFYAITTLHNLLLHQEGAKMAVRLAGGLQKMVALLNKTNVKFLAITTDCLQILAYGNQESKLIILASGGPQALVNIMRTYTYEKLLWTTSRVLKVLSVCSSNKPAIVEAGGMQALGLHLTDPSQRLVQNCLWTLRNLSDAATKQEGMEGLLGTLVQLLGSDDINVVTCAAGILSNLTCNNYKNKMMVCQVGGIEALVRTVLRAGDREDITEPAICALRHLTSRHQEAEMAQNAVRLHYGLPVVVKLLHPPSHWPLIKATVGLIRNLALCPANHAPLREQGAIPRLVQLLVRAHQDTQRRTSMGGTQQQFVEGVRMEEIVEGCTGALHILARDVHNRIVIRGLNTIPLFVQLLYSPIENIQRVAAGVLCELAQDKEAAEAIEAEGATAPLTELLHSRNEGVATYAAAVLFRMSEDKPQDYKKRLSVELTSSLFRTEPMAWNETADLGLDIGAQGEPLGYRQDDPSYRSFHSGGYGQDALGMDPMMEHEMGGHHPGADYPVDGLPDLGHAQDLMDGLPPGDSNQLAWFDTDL
Experiment: Fluorescence polarization IC50 (beta-catenin / 5FAM-TCF4 10-53 competition)
Format: binding
Settings: fluorescence polarization

Q: For CC(=O)N1CCC[C@]12CC=CCCCC1(CCCC=CCCCOC(=O)N3CC[C@@](C(=O)N[C@@H](Cc4ccsc4)C(=O)N[C@@H](Cc4csc5ccccc45)C(=O)N[C@@H](CCC(N)=O)C(N)=O)(C3)NC(=O)[C@H](CC(C)C)NC(=O)[C@H](Cc3ccccc3)NC(=O)[C@H](C)NC(=O)[C@H](C)NC(=O)[C@H](CC(=O)O)NC(=O)[C@H](CC(=O)O)NC1=O)NC(=O)[C@H](CCCCNC(=O)CC[C@@H](C)[C@H]1CC[C@H]3[C@@H]4CC[C@@H]5C[C@H](O)CC[C@]5(C)[C@H]4CC[C@]13C)NC(=O)[C@H](CC(=O)O)NC2=O (stereo partly drawn) [I-1469, Ac-PL3-Asp-[lithocholate]-Lys-B5-Asp-Asp-Ala-Ala-Phe-Leu-PyrS2-3Thi-BztA-Gln-NH2], which IC50 (read-out: beta-Catenin FP IC50) is on record?
A: 95 nM

Q: CC(=O)N1CCC[C@]12CC=CCCCC1(CCCC=CCCCOC(=O)N3CC[C@@](C(=O)N[C@@H](Cc4ccsc4)C(=O)N[C@@H](Cc4csc5ccccc45)C(=O)N[C@@H](CCC(N)=O)C(N)=O)(C3)NC(=O)[C@H](CC(N)=O)NC(=O)[C@H](Cc3ccccc3)NC(=O)[C@H](C)NC(=O)[C@H](C)NC(=O)[C@H](CCC(N)=O)NC(=O)[C@H](CCC(N)=O)NC1=O)NC(=O)[C@H](CC(C)(C)C)NC(=O)[C@H](CC(=O)O)NC2=O (stereo partly drawn) [I-1558, Ac-PL3-Asp-Npg-B5-Gln-Gln-Ala-Ala-Phe-Asn-PyrS2-3Thi-BztA-Gln-NH2] was tested. Which IC50 (read-out: beta-Catenin FP IC50) did it give?
A: 678 nM

Q: For CC(=O)N1CCC[C@]12CC=CCCCC1(CCCC=CCCCOC(=O)N3CC[C@@](C(=O)N[C@@H](Cc4ccsc4)C(=O)N[C@@H](Cc4csc5ccccc45)C(=O)N[C@@H](CCC(N)=O)C(N)=O)(C3)NC(=O)[C@H](CC(C)C)NC(=O)[C@H](Cc3ccccc3)NC(=O)[C@H](C)NC(=O)[C@H](C)NC(=O)[C@H](Cn3cc(CC4(C(=O)O)CC4)nn3)NC(=O)[C@H](CC(=O)O)NC1=O)NC(=O)[C@H](CC(C)(C)C)NC(=O)[C@H](CC(=O)O)NC2=O (stereo partly drawn) [I-2482, Ac-PL3-Asp-Npg-B5-Asp-[CH2CCpCO2H]TriAzDap-Ala-Ala-Phe-Leu-PyrS2-3Thi-BztA-Gln-NH2], which IC50 (read-out: beta-Catenin FP IC50) is on record?
A: 5 nM

Q: For CC(C)C[C@H](NC(=O)[C@]12CCN(C1)C(=O)OCCCC=CCCCC1(CCCC=CCCC(=O)N3CCC[C@@]3(C)C(=O)N[C@@H](CC(=O)O)C(=O)N1)C(=O)N[C@@H](C)C(=O)N[C@@H](CC(=O)O)C(=O)N[C@@H](Cc1cccc(C(=O)O)c1)C(=O)N[C@@H](C)C(=O)N[C@@H](C)C(=O)N[C@@H](Cc1ccccc1)C(=O)N2)C(=O)N[C@@H](Cc1ccsc1)C(=O)N[C@@H](Cc1csc2ccccc12)C(=O)N[C@@H](CCC(N)=O)C(N)=O (stereo partly drawn) [I-2603, 4pentenyl-MePro-Asp-B5-Ala-Asp-3COOHF-Ala-Ala-Phe-PyrS2-Leu-3Thi-BztA-Gln-NH2], which IC50 (read-out: beta-Catenin FP IC50) is on record?
A: 767 nM

Q: With CC(=O)N1CCC[C@]12CC=CCCCC1(CCCC=CCCCOC(=O)N3CC[C@@](C(=O)N[C@@H](Cc4ccsc4)C(=O)N[C@@H](Cc4csc5ccccc45)C(=O)N[C@@H](CCC(N)=O)C(N)=O)(C3)NC(=O)[C@H](CC(N)=O)NC(=O)[C@H](Cc3ccccc3)NC(=O)[C@H](C)NC(=O)[C@H](C)NC(=O)[C@H](CCc3ccc(O)cc3)NC(=O)[C@H](CC(=O)O)NC1=O)NC(=O)[C@H](CC(C)(C)C)NC(=O)[C@H](CC(=O)O)NC2=O (stereo partly drawn) [I-1785, Ac-PL3-Asp-Npg-B5-Asp-hTyr-Ala-Ala-Phe-Asn-PyrS2-3Thi-BztA-Gln-NH2] as the compound, how does the IC50 (read-out: beta-Catenin FP IC50) read?
A: 31 nM

Q: Which IC50 (read-out: beta-Catenin FP IC50) does the source give for CC(=O)N1CCC[C@]12CC=CCCCC1(CCCC=CCCCOC(=O)N3CC[C@@](C(=O)N[C@@H](Cc4cccc(Cl)c4)C(=O)N[C@@H](Cc4csc5ccccc45)C(=O)N[C@@H](CCO)C(N)=O)(C3)NC(=O)[C@H](CC(N)=O)NC(=O)[C@H](Cc3ccccc3)NC(=O)[C@H](C)NC(=O)[C@H](CCCCNC(C)C)NC(=O)[C@H](CCC(N)=O)NC(=O)[C@H](CC(=O)O)NC1=O)NC(=O)[C@H](CC1CCCCC1)NC(=O)[C@H](CC(N)=O)NC2=O (stereo partly drawn) [I-1928, Ac-PL3-Asn-Cha-B5-Asp-Gln-iPrLys-Ala-Phe-Asn-PyrS2-3C1F-BztA-Hse-NH2] here?
A: 887 nM

Q: How did the IC50 (read-out: beta-Catenin FP IC50) turn out when CC(=O)N1CCC[C@]12CC=CCCCC1(CCCC=CCCCOC(=O)N3CC[C@@](C(=O)N[C@@H](Cc4ccccc4Cl)C(=O)N[C@@H](Cc4csc5ccccc45)C(=O)N[C@@H](CCC(N)=O)C(N)=O)(C3)NC(=O)[C@H](CC(N)=O)NC(=O)[C@H](Cc3ccccc3)NC(=O)[C@H](C)NC(=O)[C@H](C)NC(=O)[C@H]([C@@H](C)O)NC(=O)[C@H](CC(N)=O)NC1=O)NC(=O)[C@H](CC(C)(C)C)NC(=O)[C@H](CC(=O)O)NC2=O (stereo partly drawn) [I-1998, Ac-PL3-Asp-Npg-B5-Asn-Thr-Ala-Ala-Phe-Asn-PyrS2-2C1F-BztA-Gln-NH2] was run?
A: 732 nM

Q: What does the source list for CC(=O)N1CCC[C@]12CC=CCCCC1(CCCC=CCCCOC(=O)N3CC[C@@](C(=O)N[C@@H](Cc4ccccc4Cl)C(=O)N[C@@H](Cc4csc5ccccc45)C(=O)N[C@@H](CC(C)C)C(N)=O)(C3)NC(=O)[C@H](CC(C)C)NC(=O)[C@H](Cc3ccccc3)NC(=O)[C@H](C)NC(=O)[C@H](C)NC(=O)[C@H](CC(=O)O)NC(=O)[C@H](CC(=O)O)NC1=O)NC(=O)[C@H](CC(C)C)NC(=O)[C@H](CC(=O)O)NC2=O (stereo partly drawn) [I-1419, Ac-PL3-Asp-Leu-B5-Asp-Asp-Ala-Ala-Phe-Leu-PyrS2-2C1F-BztA-Leu-NH2]?
A: IC50 (beta-catenin, read-out: FP EC50): 152 nM; IC50 (read-out: beta-Catenin FP IC50): 152 nM

Q: How did the IC50 (read-out: beta-Catenin FP IC50) turn out when CC(C)C[C@H](NC(=O)[C@]12CCN(C1)C(=O)OCCCCCCCCC1(CCCCCCCC(=O)N3CCC[C@@]3(C)C(=O)N[C@@H](CC(=O)O)C(=O)N1)C(=O)N[C@@H](C)C(=O)N[C@@H](CC(=O)O)C(=O)N[C@@H](Cc1cccc(C(=O)O)c1)C(=O)N[C@@H](C)C(=O)N[C@@H](C)C(=O)N[C@@H](Cc1ccccc1)C(=O)N2)C(=O)N[C@@H](Cc1ccsc1)C(=O)N[C@@H](Cc1csc2ccccc12)C(=O)N[C@@H](CCC(N)=O)C(N)=O (stereo partly drawn) [I-2605, 4pentenyl-MePro-Asp-B5-Ala-Asp-3COOHF-Ala-Ala-Phe-PyrS2-Leu-3Thi-BztA-Gln-NH2] was run?
A: 608 nM

Q: With CC(=O)N1CCC[C@]12CC=CCCCC1(CCCC=CCCCOC(=O)N3CC[C@@](C(=O)N[C@@H](Cc4cccs4)C(=O)N[C@@H](Cc4csc5ccccc45)C(=O)N[C@@H](CCO)C(N)=O)(C3)NC(=O)[C@H](CC(N)=O)NC(=O)[C@H](Cc3ccccc3)NC(=O)[C@H](C)NC(=O)[C@H](CCCCNC(C)C)NC(=O)[C@H](CCC(N)=O)NC(=O)[C@H](CC(=O)O)NC1=O)NC(=O)[C@H](CC1CCCCC1)NC(=O)[C@H](CC(N)=O)NC2=O (stereo partly drawn) [I-2075, Ac-PL3-Asn-Cha-B5-Asp-Gln-iPrLys-Ala-Phe-Asn-PyrS2-2Thi-BztA-Hse-NH2] as the compound, how does the IC50 (read-out: beta-Catenin FP IC50) read?
A: 2330 nM

Q: How did the IC50 (beta-Catenin FP IC50 (nM)) turn out when CC(=O)N1CCC[C@]12CC=CCCCC1(CCCC=CCCCOC(=O)N3CC[C@@](C(=O)N[C@@H](Cc4ccsc4)C(=O)N[C@@H](Cc4csc5ccccc45)C(=O)N[C@@H](CC(N)=O)C(=O)N[C@@H](C)C(=O)N[C@@H](C)C(=O)N[C@@H](C)C(=O)N[C@@H](C)C(=O)N[C@@H](C)C(=O)N[C@@H](C)C(=O)N[C@@H](C)C(=O)N[C@@H](C)C(=O)N[C@@H](C)C(N)=O)(C3)NC(=O)[C@H](CC(C)C)NC(=O)[C@H](Cc3ccccc3)NC(=O)[C@H](C)NC(=O)[C@H](C)NC(=O)[C@H](Cc3cccc(C(=O)O)c3)NC(=O)[C@H](CC(=O)O)NC1=O)NC(=O)[C@H](CC(C)(C)C)NC(=O)[C@H](CC(=O)O)NC2=O (stereo partly drawn) [I-2270] was run?
A: 40 nM

Q: How did the IC50 (read-out: beta-Catenin FP IC50) turn out when CCCc1cn(CCCC[C@H](NC(=O)[C@H](CO)NC(=O)[C@H](Cc2csc3ccccc23)NC(=O)[C@H](Cc2ccccc2C(F)(F)F)NC(=O)[C@]23CCN(C2)C(=O)OCCCC=CCCCC2(CCCC=CC[C@]4(CCCN4C(C)=O)C(=O)N[C@@H](CC(=O)O)C(=O)N[C@@H](CC(C)(C)C)C(=O)N2)C(=O)N[C@@H](CC(=O)O)C(=O)N[C@@H](Cc2cccc(C(=O)O)c2)C(=O)N[C@@H](C)C(=O)N[C@@H](C)C(=O)N[C@@H](Cc2ccccc2)C(=O)N[C@@H](CC(C)C)C(=O)N3)C(N)=O)nn1 (stereo partly drawn) [I-2432, Ac-PL3-Asp-Npg-B5-Asp-3COOHF-Ala-Ala-Phe-Leu-PyrS2-2F3MeF-BztA-Ser-[3C]TriAzLys-NH2] was run?
A: 60 nM

Q: Which IC50 (read-out: beta-Catenin FP IC50) does the source give for CC(=O)N1CCC[C@]12CC=CCCCC1(CCCC=CCCCOC(=O)N3CC[C@@](C(=O)N[C@@H](Cc4ccsc4)C(=O)N[C@@H](Cc4csc5ccccc45)C(=O)N[C@@H](CCC(N)=O)C(N)=O)(C3)NC(=O)[C@H](CC(C)C)NC(=O)[C@H](Cc3ccccc3)NC(=O)[C@H](C)NC(=O)[C@H](CCCN3CCOCC3)NC(=O)[C@H](CC(=O)O)NC(=O)[C@H](CC(=O)O)NC1=O)NC(=O)[C@H](CC(C)(C)C)NC(=O)[C@H](CC(=O)O)NC2=O (stereo partly drawn) [I-1481, Ac-PL3-Asp-Npg-B5-Asp-Asp-MorphNva-Ala-Phe-Leu-PyrS2-3Thi-BztA-Gln-NH2] here?
A: 7 nM

Q: Which IC50 (read-out: beta-Catenin FP IC50) does the source give for CC(=O)N1CCC[C@]12CC=CCC1(CC=CCCCCOC(=O)N3CC[C@@](C(=O)N[C@@H](Cc4ccsc4)C(=O)N[C@@H](Cc4csc5ccccc45)C(=O)N[C@@H](CCC(N)=O)C(N)=O)(C3)NC(=O)[C@H](CC(C)C)NC(=O)[C@H](Cc3ccccc3)NC(=O)[C@H](C)NC(=O)[C@H](C)NC(=O)[C@H](CC(=O)O)NC(=O)[C@H](CC(=O)O)NC1=O)NC(=O)[C@H](CC(C)(C)C)NC(=O)[C@H](CC(=O)O)NC2=O (stereo partly drawn) [I-2157, Ac-PL3-Asp-Npg-B3-Asp-Asp-Ala-Ala-Phe-Leu-PyrS3-3Thi-BztA-Gln-NH2] here?
A: 141 nM
